The values that follow come from patent publication US7183415B2, “Quinoline compound” (Takeda Pharmaceutical Company Limited, priority 2001, dated 2007).

As to `COc1ccc(-c2ccc(C(=O)Nc3ccc4cc(CN5CCCC5)cnc4c3C)cc2F)cc1` [Example 152, 2-fluoro-4′-methoxy-N-[8-methyl-3-(1-pyrrolidinylmethyl)-7-quinolinyl][1,1′-biphenyl]-4-carboxamide], the melting point (commonly the temperature of the solid-liquid transition) was in the range of 174 to 176 °C.
The result for `Cc1c(NC(=O)c2ccc(-c3ccc(F)cc3)c(F)c2)ccc2cc(CN3CCCC3)cnc12` [Example 153, 2,4′-difluoro-N-[8-methyl-3-(1-pyrrolidinylmethyl)-7-quinolinyl][1,1′-biphenyl]-4-carboxamide] reads 176 to 178 °C.
The result for `Cc1c(NC(=O)c2ccc(-c3ccc(Cl)cc3)c(F)c2)ccc2cc(CN3CCCC3)cnc12` [Example 154, 4′-chloro-2-fluoro-N-[8-methyl-3-(1-pyrrolidinylmethyl)-7-quinolinyl][1,1′-biphenyl]-4-carboxamide] reads 190 to 192 °C; that for `Cc1ccc(-c2ccc(C(=O)Nc3ccc4cc(CN5CCCC5)cnc4c3C)cc2F)cc1` [Example 155, 2-fluoro-4′-methyl-N-[8-methyl-3-(1-pyrrolidinylmethyl)-7-quinolinyl][1,1′-biphenyl]-4-carboxamide], 193 to 194 °C.
For `Cc1c(NC(=O)c2ccc(-c3ccccc3F)c(F)c2)ccc2cc(CN3CCCC3)cnc12` [Example 156, 2,2′-difluoro-N-[8-methyl-3-(1-pyrrolidinylmethyl)-7-quinolinyl][1,1′-biphenyl]-4-carboxamide], the melting point is 139 to 140 °C.
The result for `Cc1cc(-c2ccc(F)cc2)ccc1C(=O)Nc1ccc2cc(CN3CCCC3)cnc2c1C` [Example 158, 4′-fluoro-3-methyl-N-[8-methyl-3-(1-pyrrolidinylmethyl)-7-quinolinyl][1,1′-biphenyl]-4-carboxamide] reads 200 to 203 °C; that for `Cc1cc(C(=O)Nc2ccc3cc(CN4CCCC4)cnc3c2C)ccc1-c1ccc(F)cc1` [Example 160, 4′-fluoro-2-methyl-N-[8-methyl-3-(1-pyrrolidinylmethyl)-7-quinolinyl][1,1′-biphenyl]-4-carboxamide], 200 to 202 °C; that for `Cc1c(NC(=O)c2ccc(OCc3ccccc3)cc2)ccc2cc(CN3CCCCC3)cnc12` [Example 161, 4-(benzyloxy)-N-[8-methyl-3-(1-piperidinylmethyl)-7-quinolinyl]benzamide], 186 to 187 °C.
With `Cc1c(NC(=O)c2ccc(OCc3ccc(F)cc3)cc2)ccc2cc(CN3CCCCC3)cnc12` [Example 162, 4-[(4-fluorobenzyl)oxy]-N-[8-methyl-3-(1-piperidinylmethyl)-7-quinolinyl]benzamide] the figure was 159 to 160 °C; with `COc1ccc(-c2ccc(C(=O)Nc3ccc4cc(CN5CCCCC5)cnc4c3C)cc2)cc1` [Example 165], 190 to 192 °C.
Consider `Cc1c(NC(=O)c2ccc(-c3ccc(F)cc3)cc2)ccc2cc(CN3CCCCC3)cnc12` [Example 166, 4′-fluoro-N-[8-methyl-3-(1-piperidinylmethyl)-7-quinolinyl][1,1′-biphenyl]-4-carboxamide], for which the melting point lay in the range of 188 to 190 °C.
The result for `Cc1c(NC(=O)c2ccc(-c3ccc(Cl)s3)cc2)ccc2cc(CN3CCCCC3)cnc12` [Example 167, 4-(5-chloro-2-thienyl)-N-[8-methyl-3-(1-piperidinylmethyl)-7-quinolinyl]benzamide] reads 212 to 213 °C.
The result for `Cc1c(NC(=O)c2ccc(-c3ccc(F)cc3)cc2F)ccc2cc(CN3CCCCC3)cnc12` [Example 170, 3,4′-difluoro-N-[8-methyl-3-(1-piperidinylmethyl)-7-quinolinyl][1,1′-biphenyl]-4-carboxamide] reads 186 to 187 °C; that for `COc1ccc(-c2ccc(C(=O)Nc3ccc4cc(CN5CCCCC5)cnc4c3C)c(F)c2)cc1` [Example 171, 3-fluoro-4′-methoxy-N-[8-methyl-3-(1-piperidinylmethyl)-7-quinolinyl][1,1′-biphenyl]-4-carboxamide], 191 to 192 °C.
